# Article PMC9812224, “Analysis of the conformational heterogeneity of the Rieske iron–sulfur protein in complex III2 by cryo-EM” (IUCrJ, 2023)
# Target: T1, CIII2 (respiratory complex III dimer, cytochrome bc1 complex) (Yarrowia lipolytica, UniProt Q9B6D0)
# T1 construct: gene COB; native homodimeric complex from DDM-solubilized mitochondrial membranes after depletion of His-tagged complex I; untagged; ion exchange and size exclusion; with Cytochrome c1, heme protein, mitochondrial; Cytochrome b-c1 complex subunit 1, mitochondrial; Cytochrome b-c1 complex subunit 2, mitochondrial; Cytochrome b-c1 complex subunit 6; Cytochrome b-c1 complex subunit 7; Cytochrome b-c1 complex subunit 8; Cytochrome b-c1 complex subunit 9; Cytochrome b-c1 complex subunit 10
# T1 sequence (Q9B6D0 1-385): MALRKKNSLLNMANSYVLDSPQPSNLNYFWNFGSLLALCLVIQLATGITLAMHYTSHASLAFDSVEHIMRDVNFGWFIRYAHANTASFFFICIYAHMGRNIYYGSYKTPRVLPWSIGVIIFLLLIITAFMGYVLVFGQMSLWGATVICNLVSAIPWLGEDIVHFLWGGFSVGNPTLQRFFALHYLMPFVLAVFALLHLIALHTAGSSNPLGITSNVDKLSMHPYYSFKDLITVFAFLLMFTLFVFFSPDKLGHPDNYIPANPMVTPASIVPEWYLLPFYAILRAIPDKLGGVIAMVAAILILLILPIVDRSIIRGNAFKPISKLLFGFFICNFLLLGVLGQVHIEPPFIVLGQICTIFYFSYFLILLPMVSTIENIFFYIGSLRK
# Assay: cryo-EM structure
# Format: binding
# Settings: pH 8.0
compound,measurement,setting,value
CCCCCCCCCCc1c(C)c(O)c(OC)c(OC)c1O [decylubiquinol],cryo-EM structure,"Qi site (cyt b only), 1 mM, substrate analogue","After its addition, decylubiquinol was resolved in the Qi site"
CCCCCCCCCCC1=C(C)C(=O)C(OC)=C(OC)C1=O [decylubiquinone],cryo-EM structure,"Qo site, possible low occupancy, 330 µM with 25 mM sodium ascorbate, quinone analogue","density in the Qo site increased, indicating a possible low occupancy of DQ"
O=C1C(O)=C([C@H]2CC[C@H](c3ccc(Cl)cc3)CC2)C(=O)c2ccccc21 [atovaquone],cryo-EM structure,"Qo site (cyt b; hydrogen bond to His190 of Rip1), with antimycin A, 120 µM",Atovaquone was resolved in the Qo site in the +atovaquone+antimycin A sample
